According to PubChem BioAssay AID2060507 (Molecular Pharmacology Branch, DTP, NCI, 2025):

Tested on: 519858-162-T-J1-PDC complex spheroid viability
Experiment: Anticancer human tumor 519858-162-T-J1-PDC patient-derived colon adenocarcinoma cell line growth inhibition [GQUAD]
Settings: for IC50: curve of first compound; for viability, T/C: stronger effect = lower value
Method in brief: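 Multi-cell-type spheroids of tumor cells with HUVEC and mesenchymal stem cells, treated with drug combinations. Concentrations descend in half-log steps from near clinical Cmax, or from 10 microM where Cmax is unknown; viability read-out.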

[1] = second compound 0.0316 µM, first compound 0.0316 µM
[2] = second compound 0.0316 µM, first compound 0.1 µM
[3] = second compound 0.0316 µM, first compound 0.316 µM
[4] = second compound 0.0316 µM, first compound 1 µM
[5] = second compound 0.0316 µM, first compound 3.16 µM
[6] = second compound 0.0316 µM, first compound 10 µM
[7] = second compound 0.1 µM, first compound 0.0316 µM
[8] = second compound 0.1 µM, first compound 0.1 µM
[9] = second compound 0.1 µM, first compound 0.316 µM
[10] = second compound 0.1 µM, first compound 1 µM
[11] = second compound 0.1 µM, first compound 3.16 µM
[12] = second compound 0.1 µM, first compound 10 µM
[13] = second compound 0.316 µM, first compound 0.0316 µM
[14] = second compound 0.316 µM, first compound 0.1 µM
[15] = second compound 0.316 µM, first compound 0.316 µM
[16] = second compound 0.316 µM, first compound 1 µM
[17] = second compound 0.316 µM, first compound 3.16 µM
[18] = second compound 0.316 µM, first compound 10 µM
[19] = second compound 1 µM, first compound 0.0316 µM
[20] = second compound 1 µM, first compound 0.1 µM
[21] = second compound 1 µM, first compound 0.316 µM
[22] = second compound 1 µM, first compound 1 µM
[23] = second compound 1 µM, first compound 3.16 µM
[24] = second compound 1 µM, first compound 10 µM
[25] = second compound 3.16 µM, first compound 0.0316 µM
[26] = second compound 3.16 µM, first compound 0.1 µM
[27] = second compound 3.16 µM, first compound 0.316 µM
[28] = second compound 3.16 µM, first compound 1 µM
[29] = second compound 3.16 µM, first compound 3.16 µM
[30] = second compound 3.16 µM, first compound 10 µM
[31] = second compound 10 µM, first compound 0.0316 µM
[32] = second compound 10 µM, first compound 0.1 µM
[33] = second compound 10 µM, first compound 0.316 µM
[34] = second compound 10 µM, first compound 1 µM
[35] = second compound 10 µM, first compound 3.16 µM
[36] = second compound 10 µM, first compound 10 µM
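Also: spheroids exposed to compounds for 7 days.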
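For viability, T/C in this document: 100% = DMSO vehicle control viability.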

C#Cc1c(F)ccc2cc(O)cc(-c3ncc4c(N5CC6CCC(C5)N6)nc(OCC56CCCN5CC(F)C6)nc4c3F)c12 (stereo unspecified) + Cc1cnc(CNC(=O)c2c(=O)c3ccc(N4CCCN(C)CC4)nc3n3c2sc2ccccc23)cn1
IC50 (second compound 0.0316 µM): > 10 µM
IC50 (second compound 0.1 µM): > 10 µM
IC50 (second compound 0.316 µM): 9.62 µM
IC50 (second compound 1 µM): 3.61 µM
IC50 (second compound 3.16 µM): 1.27 µM
IC50 (second compound 10 µM): < 0.0316 µM
viability, T/C [1]: 71.2%
viability, T/C [2]: 81.3%
viability, T/C [3]: 83.4%
viability, T/C [4]: 104%
viability, T/C [5]: 78.2%
viability, T/C [6]: 73.9%
viability, T/C [7]: 78.8%
viability, T/C [8]: 89%
viability, T/C [9]: 61.9%
viability, T/C [10]: 84.2%
viability, T/C [11]: 70.7%
viability, T/C [12]: 92%
viability, T/C [13]: 65%
viability, T/C [14]: 88%
viability, T/C [15]: 73.3%
viability, T/C [16]: 66.6%
viability, T/C [17]: 83.1%
viability, T/C [18]: 49.2%
viability, T/C [19]: 70.1%
viability, T/C [20]: 56.7%
viability, T/C [21]: 63.5%
viability, T/C [22]: 55.9%
viability, T/C [23]: 48.8%
viability, T/C [24]: 46.4%
viability, T/C [25]: 46.6%
viability, T/C [26]: 63.5%
viability, T/C [27]: 53.4%
viability, T/C [28]: 53.1%
viability, T/C [29]: 34.5%
viability, T/C [30]: 42%
viability, T/C [31]: 32.5%
viability, T/C [32]: 55.2%
viability, T/C [33]: 48.4%
viability, T/C [34]: 53.4%
viability, T/C [35]: 52.4%
viability, T/C [36]: 41.7%

C=CC(=O)N1CCN(c2nc(=O)n(-c3c(C)ccnc3C(C)C)c3nc(-c4c(O)cccc4F)c(F)cc23)C(C)C1 (stereo unspecified) + Cc1cnc(CNC(=O)c2c(=O)c3ccc(N4CCCN(C)CC4)nc3n3c2sc2ccccc23)cn1
IC50 (second compound 0.0316 µM): > 10 µM
IC50 (second compound 0.1 µM): > 10 µM
IC50 (second compound 0.316 µM): > 10 µM
IC50 (second compound 1 µM): 2.44 µM
IC50 (second compound 3.16 µM): < 0.0316 µM
IC50 (second compound 10 µM): 0.0729 µM
viability, T/C [1]: 74.2%
viability, T/C [2]: 91.8%
viability, T/C [3]: 77.1%
viability, T/C [4]: 89.3%
viability, T/C [5]: 46.3%
viability, T/C [6]: 103%
viability, T/C [7]: 97%
viability, T/C [8]: 70.4%
viability, T/C [9]: 109%
viability, T/C [10]: 92.3%
viability, T/C [11]: 76.3%
viability, T/C [12]: 82.9%
viability, T/C [13]: 54.2%
viability, T/C [14]: 53%
viability, T/C [15]: 55.9%
viability, T/C [16]: 57%
viability, T/C [17]: 65.2%
viability, T/C [18]: 76.6%
viability, T/C [19]: 69.1%
viability, T/C [20]: 56.3%
viability, T/C [21]: 68.2%
viability, T/C [22]: 56.9%
viability, T/C [23]: 40.3%
viability, T/C [24]: 45.5%
viability, T/C [25]: 46.5%
viability, T/C [26]: 49.6%
viability, T/C [27]: 41.8%
viability, T/C [28]: 55.8%
viability, T/C [29]: 56%
viability, T/C [30]: 42.9%
viability, T/C [31]: 60%
viability, T/C [32]: 46.4%
viability, T/C [33]: 42.8%
viability, T/C [34]: 48.2%
viability, T/C [35]: 48.7%
viability, T/C [36]: 42.8%

CC(=O)O[C@H]1C(=O)[C@@]2(C)[C@H]([C@H](OC(=O)c3ccccc3)[C@]3(O)C[C@H](OC(=O)[C@H](O)[C@@H](NC(=O)c4ccccc4)c4ccccc4)C(C)=C1C3(C)C)[C@]1(OC(C)=O)CO[C@@H]1C[C@@H]2O + Cc1cnc(CNC(=O)c2c(=O)c3ccc(N4CCCN(C)CC4)nc3n3c2sc2ccccc23)cn1
IC50 (second compound 0.0316 µM): > 10 µM
IC50 (second compound 0.1 µM): > 10 µM
IC50 (second compound 0.316 µM): > 10 µM
IC50 (second compound 1 µM): > 10 µM
IC50 (second compound 3.16 µM): > 10 µM
IC50 (second compound 10 µM): < 0.0316 µM
viability, T/C [1]: 78.7%
viability, T/C [2]: 93.7%
viability, T/C [3]: 72.2%
viability, T/C [4]: 75.3%
viability, T/C [5]: 92.5%
viability, T/C [6]: 93.3%
viability, T/C [7]: 104%
viability, T/C [8]: 90.9%
viability, T/C [9]: 74.8%
viability, T/C [10]: 91.5%
viability, T/C [11]: 103%
viability, T/C [12]: 67.8%
viability, T/C [13]: 65.2%
viability, T/C [14]: 57.1%
viability, T/C [15]: 60.6%
viability, T/C [16]: 68.9%
viability, T/C [17]: 70.9%
viability, T/C [18]: 73.4%
viability, T/C [19]: 55.7%
viability, T/C [20]: 70.9%
viability, T/C [21]: 48.5%
viability, T/C [22]: 58.6%
viability, T/C [23]: 67.1%
viability, T/C [24]: 56.1%
viability, T/C [25]: 59.7%
viability, T/C [26]: 67.7%
viability, T/C [27]: 45.9%
viability, T/C [28]: 66.8%
viability, T/C [29]: 51.4%
viability, T/C [30]: 59.9%
viability, T/C [31]: 26.7%
viability, T/C [32]: 44.4%
viability, T/C [33]: 38.7%
viability, T/C [34]: 58.5%
viability, T/C [35]: 48.9%
viability, T/C [36]: 69.6%
